# Counter-ions that a name gives are not always drawn.
row,melting point,Compound
1,133 to 135 °C (dec.),"CCN1CCN(c2nc(-c3ccc(OCC(O)CO)cc3)cc3ccccc23)CC1 (stereo not shown) (as salt: hydrochloride) [Example 337, 1-(4-ethylpiperazin-1-yl)-3-[4-(2,3-dihydroxypropoxy)phenyl]isoquinoline dihydrochloride]"
2,220 to 226 °C,CCCN1CCN(c2nc(-c3ccc(OC)cc3)cc3ccccc23)CC1 (as salt: hydrochloride)
3,125 to 126.5 °C,"CCN1CCN(c2nc(-c3ccc(OC)c(OC)c3)cc3ccccc23)CC1 (as salt: hydrochloride) [Example 14, 3-(3,4-dimethoxyphenyl)-1-(4-ethylpiperazin-1-yl)isoquinoline Dihydrochloride]"
4,173 to 175 °C,CCN1CCN(c2nc(-c3ccc(O)cc3)cc3sccc23)CC1 (as salt: hydrochloride)
5,194 to 197 °C,"CCN1CCN(c2nc(-c3ccc(CCNS(=O)(=O)CC)cc3)cc3ccccc23)CC1 (as salt: hydrochloride) [Example 79, 3-(4-Ethylsulfonylaminoethylphenyl)-1-(4-Ethylpiperazin-1-Yl)Isoquinoline Hydrochloride]"
6,133 to 136 °C,"CCCCNC(=O)Cc1ccc(-c2cc3ccccc3c(N3CCN(CC)CC3)n2)cc1 (as salt: hydrochloride) [Example 89, 3-(4-Butylaminocarbonylmethylphenyl)-1-(4-ethylpiperazin-1-yl)isoquinoline Hydrochloride]"
7,200.5 to 201.5 °C (dec.),CCN1CCN(c2nc(-c3ccc(OC)cc3)c(Cl)c3ccccc23)CC1 (as salt: hydrochloride)
8,129 to 131 °C,"CCN1CCN(c2nc(-c3ccc(OCCCc4ccncc4)cc3)cc3ccccc23)CC1 (as salt: hydrochloride) [Example 57, 3-{4-[3-(4-Pyridyl)Propoxy]Phenyl}-1-(4-Ethylpiperazin-1-Yl)Isoquinoline Hydrochloride]"
9,148 to 150 °C,"CN1CCN(c2nc(-c3ccc(OCCO)cc3)cc3sccc23)CC1 (as salt: hydrochloride) [Example 279, 4-(4-methylpiperazin-1-yl)-6-[4-(2-hydroxyethoxy)phenyl]thieno[3,2-c]pyridine hydrochloride]"
10,140 to 142 °C,"CC(C)(O)COc1ccc(-c2cc3sccc3c(N3CCN(CCc4ccccc4)CC3)n2)cc1 (as salt: hydrochloride) [Example 297, 6-[4-(2-methyl-2-hydroxypropoxy)phenyl]-4-[4-(2-phenylethyl)piperazin-1-yl]thieno[3,2-c]pyridine]"
11,186 °C,"CCN1CCN(c2nc(-c3ccc(N4CCOCC4)nc3)cc3ccccc23)CC1 (as salt: hydrochloride) [Example 147, 1-(4-ethylpiperazin-1-yl)-3-[2-(morpholin-4-yl)pyridin-5-yl]isoquinoline trihydrochloride]"
12,242 to 245 °C,"CCN1CCN(c2nc(-c3ccc(OC)cc3)cc3ncccc23)CC1 (as salt: hydrochloride) [Example 252, 5-(1-ethylpiperazin-4-yl)-7-(4-methoxyphenyl)-1,6-naphthyridine Dihydrochloride]"
13,168 to 171 °C,"CCCC(=O)Nc1ccc(-c2cc3ccccc3c(N3CCN(CC)CC3)n2)cn1 (as salt: hydrochloride) [Example 128, 3-(2-propylcarbonylaminopyridin-5-yl)-1-(4-ethylpiperazin-1-yl)isoquinoline hydrochloride]"
14,111 to 116 °C,"C=CCN1CCN(c2nc(-c3ccc(OC)cc3)cc3ccccc23)CC1 (as salt: hydrochloride) [Example 240, 1-(1-allylpiperazin-4-yl)-3-(4-methoxyphenyl)isoquinoline dihydrochloride]"
15,66 to 67 °C,"CCN1CCN(c2nc(-c3ccc(CC(C)O)cc3)cc3ccsc23)CC1 (stereo not shown) (as salt: hydrochloride) [Example 436, 7-(4-ethylpiperazin-1-yl)-5-[4-(2-hydroxypropyl)phenyl]thieno[2,3-c]pyridine dihydrochloride]"
16,248 to 250 °C (dec.),"CCN1CCN(c2nc(-c3ccc(OCCO)c(C(C)C)c3)cc3ccccc23)CC1 (as salt: hydrochloride) [Example 41, 3-[3-isopropyl-4-(2-hydroxyethoxy)phenyl]-1-(4-ethylpiperazin-1-yl)isoquinoline hydrochloride]"

row,melting point,Compound
1,112 to 114 °C,"CCN1CCN(c2nc(-c3ccc(OC[C@@H](C)O)cc3)cc3ccccc23)CC1 (as salt: hydrochloride) [Example 403, 1-(4-ethylpiperazin-1-yl)-3-[4-(2-hydroxypropoxy)phenyl]isoquinoline Dihydrochloride]"
2,213 to 215 °C (dec.),"CCN1CCN(c2nc(-c3ccc(S(=O)(=O)CCCO)cc3)cc3ccccc23)CC1 (as salt: hydrochloride) [Example 352, 1-(4-ethylpiperazin-1-yl)-3-[4-(3-hydroxypropyl)sulfonylphenyl]isoquinoline dihydrochloride]"
3,173 to 175 °C,"CCN1CCN(c2nc(/C=C/c3cncc(N4CCOCC4)n3)cc3ccccc23)CC1 (as salt: oxalate) [Example 216, 3-{(E)-2-[2-(4-morpholinyl)pyrazin-6-yl]ethenyl}-1-(4-ethylpiperazin-1-yl)isoquinoline oxalate]"
4,224 to 225 °C (dec.),"CCN1CCN(c2nc(-c3ccc(S(=O)(=O)CCCF)cc3)cc3ccccc23)CC1 (as salt: hydrochloride) [Example 355, 1-(4-ethylpiperazin-1-yl)-3-[4-(3-fluoropropyl)sulfonylphenyl]isoquinoline dihydrochloride]"
5,148 to 149.5 °C,"CCN1CCN(c2nc(-c3ccc([C@@H]4C[C@H](O)CCO4)cc3)cc3ccccc23)CC1 (relative stereo) (as salt: hydrochloride) [Example 401, 1-(4-Ethylpiperazin-1-yl)-3-[4-(cis-4-Hydroxytetrahydropyran-2-yl)Phenyl]Isoquinoline Dihydrochloride]"
6,128 to 129 °C,"CCN1CCN(c2nc(-c3ccc(OCCO)c(OC)c3)cc3ccccc23)CC1 (as salt: hydrochloride) [Example 340, 1-(4-ethylpiperazin-1-yl)-3-[4-(2-hydroxyethoxy)-3-methoxyphenyl]isoquinoline dihydrochloride]"
7,174 to 176 °C,"CCN1CCN(c2nc(-c3ccc(CC(C)O)cc3)cc3ccccc23)CC1 (stereo not shown) (as salt: oxalate) [Example 376, 1-(4-ethylpiperazin-1-yl)-3-[4-(2-hydroxypropyl)phenyl]isoquinoline oxalate]"
8,154 to 155 °C,"CCN1CCN(c2nc(-c3ccc(C(=O)NCCO)cc3)cc3ccccc23)CC1 (as salt: hydrochloride) [Example 346, 1-(4-ethylpiperazin-1-yl)-3-{4-(N-(2-hydroxyethyl)carbamoyl]phenyl}isoquinoline dihydrochloride]"
9,123 to 124 °C,"CCN1CCN(c2nc(-c3ccc(CCCO)c(Cl)c3)cc3ccccc23)CC1 (as salt: hydrochloride) [Example 30, 3-[3-chloro-4-(3-hydroxypropyl)phenyl]-1-(4-ethylpiperazin-1-yl)isoquinoline hydrochloride]"
10,176 to 178 °C,"CCC(=O)Nc1ccc(-c2cc3ccccc3c(N3CCN(CC)CC3)n2)cc1 (as salt: hydrochloride) [Example 69, 3-(4-Ethylcarbonylaminophenyl)-1-(4-Ethylpiperazin-1-Yl)Isoquinoline Hydrochloride]"
11,122 to 124 °C,"CCN1CCN(c2nc(C3CCc4ccc(OC)cc43)cc3ccccc23)CC1 (stereo not shown) (as salt: oxalate) [Example 114, 3-(6-Methoxyindan-1-yl)-1-(4-ethylpiperazin-1-yl)isoquinoline Oxalate]"
12,170 °C,"CCN1CCN(c2nc(-c3ccc(N4CCC(OC)CC4)nc3)cc3ccccc23)CC1 (as salt: hydrochloride) [Example 153, 1-(4-ethylpiperazin-1-yl)-3-[2-(4-methoxypiperidin-1-yl)pyridin-5-yl]isoquinoline trihydrochloride]"
13,243 to 246 °C,CCN1CCN(c2nc(-c3ccc(OC)cc3)cc3ccc(C)cc23)CC1 (as salt: hydrochloride)
14,173 to 176 °C,CCN1CCN(c2nc(-c3ccc(OCCCN)cc3)cc3ccccc23)CC1 (as salt: hydrochloride)
15,109 to 114 °C,"CCCCC(=O)c1ccc(-c2cc3ccsc3c(N3CCN(CC)CC3)n2)cc1 (as salt: hydrochloride) [Example 271, 7-(1-ethylpiperazin-4-yl)-5-(4-pentanoylphenyl)phenyl)thieno[2,3-c]pyridine dihydrochloride]"

row,Compound,melting point
1,"CCN1CCN(c2nc(-c3ccc(CCC(C)O)cc3)cc3ccoc23)CC1 (stereo not shown) (as salt: hydrochloride) [Example 300, 7-(1-ethylpiperazin-4-yl)-5-[4-(3-hydroxybutyl)phenyl]furo[2,3-c]pyridine dihydrochloride]",175 to 177 °C
2,"CN1CCN(c2nc(-c3ccc(OCCO)cc3)cc3ccccc23)CC1 (as salt: hydrochloride) [Example 3, 1-(1-methylpiperazin-4-yl)-3-[4-(2-hydroxyethoxy)phenyl]isoquinoline]",131 to 144 °C
3,CCN1CCN(c2nc(-c3ccc(C(C)(C)CCO)cc3)cc3ccccc23)CC1 (as salt: oxalate) [Example 390],134 to 135 °C
4,"CCN1CCN(c2nc(C#Cc3cncc(CCCOC)c3)cc3ccccc23)CC1 (as salt: hydrochloride) [Example 186, 1-(1-Ethylpiperazin-4-Yl)-3-[3-(3-Methoxypropyl)-5-Pyridyl]Ethynylisoquinoline]",135 to 140 °C
5,CCN1CCN(c2nc(-c3ccc(CCCO)c(F)c3)cc3ccccc23)CC1 (as salt: hydrochloride) [Example 29],126 to 127 °C (dec.)
6,"CCN1CCN(c2nc(-c3ccc(CO)c(CO)c3)cc3ccccc23)CC1 (as salt: hydrochloride) [Example 394, 1-(4-Ethylpiperazin-1-yl)-3-[(3,4-Dihydroxymethyl)Phenyl]Isoquinoline Dihydrochloride]",130.5 to 132 °C (dec.)

# From patent publication US6875761B2 (Eisai Co., Ltd., priority 1997, dated 2005)
